Data on five compounds can be found in ChEMBL document CHEMBL1133043, “Potent inhibition of retinoic acid metabolism enzyme(s) by novel azolyl retinoids” (Bioorg Med Chem Lett, 2000).

This assay deals with Cricetinae gen. sp. Put plainly: The compound was tested for the inhibition of all-trans retinoic acid (ATRA) catabolism using 7.27 pmol [11,12-3H]-ATRA as substrate in microsomal preparations of male hamster liver fortified with NADPH. The assay is classed as functional.
On to `CC1=C(/C=C/C(C)=C/C=C/C(C)=C/C(=O)O)C(C)(C)CCC1n1cncn1` (stereo not given), for which 880 nM corresponded to half-maximal inhibition (IC50).

`COC(=O)/C=C(C)/C=C/C=C(C)/C=C/C1=C(C)C(n2cncn2)CCC1(C)C` (stereo not given): half-maximal inhibition (IC50) was put at 680 nM.

For the compound `CC1=C(/C=C/C(C)=C/C=C/C(C)=C/C(=O)O)C(C)(C)CCC1n1cnnc1` (stereo not given), the IC50 (usually the concentration that gives 50% inhibition) came out at 1620 nM.

In turn, `CC1=C(/C=C/C(C)=C/C=C/C(C)=C/C(=O)O)C(C)(C)CCC1n1ccnc1` (stereo not given) gave an IC50 of 100 nM.

`CC(=O)N1CCN(c2ccc(OC[C@H]3CO[C@](Cn4ccnc4)(c4ccc(Cl)cc4Cl)O3)cc2)CC1` [KETOCONAZOLE] returned an IC50 of 34000 nM.
